Data as given in the supplement of paper PMC11061612.

Legend:
[1] = compound: C=CCn1c(=O)c2cnc(Nc3ccc(N4CCN(C)CC4)cc3)nc2n1-c1cccc(C(C)(C)O)n1 [AZD1775]; settings: max 3 µM
Method in brief: (§1)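 Cancer cell lines in 1536-well plates (7.5 μl DMEM/F12 or RPMI, 10% FBS) were held 24 hours at 37°C and 5% CO2 and then dosed for 72 hours at a final DMSO of typically 0.2%. Viability was taken from CellTiter-Glo 2.0 luminescence, scaled between blank-well and DMSO-well means. Curves were fitted as two-parameter logistic models with a non-linear mixed effects model, from which the single-agent IC50 was taken.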

[2] = compound: CC(=O)Nc1cccc(-n2c(=O)n(C3CC3)c(=O)c3c(Nc4ccc(I)cc4F)n(C)c(=O)c(C)c32)c1 [Trametinib]; settings: max 1 µM
Method in brief: as §1

[3] = compound: Cc1cc2ncnn2cc1Nc1ncc2c(n1)n(C1CCOCC1)c(=O)n2C [AZD7648]; settings: max 10 µM
Method in brief: as §1

[4] = compound: O=c1[nH]cc(F)c(=O)[nH]1 [5-Fluorouracil]; settings: max 20 µM
Method in brief: as §1

[5] = compound: Nc1ccn([C@@H]2O[C@H](CO)[C@@H](O)C2(F)F)c(=O)n1 [Gemcitabine]; settings: max 0.3 µM
Method in brief: as §1

[6] = compound: COc1cc([C@@H]2c3cc4c(cc3[C@@H](O[C@@H]3O[C@@H]5CO[C@@H](C)O[C@H]5[C@H](O)[C@H]3O)[C@H]3COC(=O)[C@H]23)OCO4)cc(OC)c1O [Etoposide]; settings: max 10 µM
Method in brief: as §1

[7] = compound: C1CN(CCC1(C(=O)N[C@@H](CCO)C2=CC=C(C=C2)Cl)N)C3=NC=NC4=C3C=CN4 [AZD5363]; settings: max 10 µM
Method in brief: as §1

[8] = compound: Cc1nc(-c2cn3c(n2)-c2ccc(-c4cnn(C(C)(C)C(N)=O)c4)cc2OCC3)n(C(C)C)n1 [Taselisib]; settings: max 10 µM
Method in brief: as §1

[9] = compound: CC(=O)c1c(C)c2cnc(Nc3ccc(N4CCNCC4)cn3)nc2n(C2CCCC2)c1=O [Palbociclib]; settings: max 10 µM
Method in brief: as §1

[10] = compound: CCc1c2c(nc3ccc(O)cc13)-c1cc3c(c(=O)n1C2)COC(=O)[C@]3(O)CC [SN-38]; settings: max 0.3 µM
Method in brief: as §1

[11] = compound: CC1=CN2[C@@H](C1)C=NC3=CC(=C(C=C3C2=O)OC)OCCCCCOC4=C(C=C5C(=C4)N=C[C@@H]6CC(=CN6C5=O)C)OC [SG3199]; settings: max 0.001 µM
Method in brief: as §1

[12] = compound: COc1cc2ncnc(Nc3ccc(F)c(Cl)c3)c2cc1OCCCN1CCOCC1 [Gefitinib]; settings: max 10 µM
Method in brief: as §1

[13] = compound: C[C@@H](Nc1cc(F)cc(F)c1)c1cc(C(=O)N(C)C)cc2c(=O)cc(N3CCOCC3)oc12 [AZD8186]; settings: max 10 µM
Method in brief: as §1

[14] = compound: CC1=C(C(=CC=C1)Cl)NC(=O)C2=CN=C(S2)NC3=CC(=NC(=N3)C)N4CCN(CC4)CCO [Dasatinib]; settings: max 2 µM
Method in brief: as §1

[15] = compound: COc1cccc2c1C(=O)c1c(O)c3c(c(O)c1C2=O)C[C@@](O)(C(=O)CO)C[C@@H]3O[C@H]1C[C@H](N)[C@H](O)[C@H](C)O1 [Doxorubicin]; settings: max 1 µM
Method in brief: as §1

[16] = compound: N#Cc1cnc(Nc2cc(NC[C@H]3CNCCO3)c(C(F)(F)F)cn2)cn1 [SRA737]; settings: max 10 µM
Method in brief: as §1

[17] = compound: Cc1c2c(nn1C)CSCc1cc(n(C)n1)CSc1cc(c3ccccc3c1)OCCCc1c(C(=O)O)n(C)c3c-2c(Cl)ccc13 [AZD5991]; settings: max 1 µM
Method in brief: as §1

[18] = compound: C[C@@H](Oc1cc(-c2cnn(C3CCNCC3)c2)cnc1N)c1c(Cl)ccc(F)c1Cl [Crizotinib]; settings: max 10 µM
Method in brief: as §1

[19] = compound: NC1(c2ccc(-c3nc4ccn5c(=O)[nH]nc5c4cc3-c3ccccc3)cc2)CCC1 [MK-2206]; settings: max 10 µM
Method in brief: as §1

[20] = compound: CCN(CCO)CCCOc1ccc2c(Nc3cc(CC(=O)Nc4cccc(F)c4)[nH]n3)ncnc2c1 [AZD2811]; settings: max 1 µM
Method in brief: as §1

[21] = compound: COc1nnc2ccc(N3CCC(c4ccc(OCCN5CCN(C)C(=O)[C@H]5C)cc4)CC3)nn12 [AZD5153]; settings: max 1 µM
Method in brief: as §1

[22] = compound: C[C@@H]1COCCN1C2=NC(=NC(=C2)C3(CC3)[S@](=N)(=O)C)C4=C5C=CNC5=NC=C4 [AZD6738]; settings: max 10 µM
Method in brief: as §1

[23] = compound: O=C(Nc1ccc2[nH]nc(-c3ccncc3)c2c1)[C@@H]1CCN(CC(=O)N2CCN(c3ccc(-c4ncccn4)cc3)CC2)C1; settings: max 5 µM
Method in brief: as §1

[24] = compound: CC(C)n1c(=O)n(C)c2cnc3cc(F)c(-c4ccc(OCCCN5CCCCC5)nc4)cc3c21 [AZD1390]; settings: max 0.3 µM
Method in brief: as §1

[25] = compound: CN(CC[C@H](CSC1=CC=CC=C1)NC2=C(C=C(C=C2)S(=O)(=O)NC(=O)C3=CC=C(C=C3)N4CCC(CC4)[C@H](C5=CC=CC=C5C6=CC=C(C=C6)Cl)O)S(=O)(=O)C(F)(F)F)CCO [AZD4320]; settings: max 1 µM
Method in brief: as §1

[26] = compound: CS(=O)(=O)CCNCc1ccc(-c2ccc3ncnc(Nc4ccc(OCc5cccc(F)c5)c(Cl)c4)c3c2)o1 [Lapatinib]; settings: max 10 µM
Method in brief: as §1

[27] = compound: C[C@@H](c1ccc2nccn2c1)n1nnc2ncc(-c3cnn(C)c3)nc21 [Savolitinib]; settings: max 1 µM
Method in brief: as §1

[28] = compound: CN(C)CCCOc1ccc(-c2ccc3ncc4c(c3c2)n(C2CCOCC2)c(=O)n4C)cn1 [AZD0156]; settings: max 3 µM
Method in brief: as §1

[29] = compound: O=C(c1cc(Cc2n[nH]c(=O)c3ccccc23)ccc1F)N1CCN(C(=O)C2CC2)CC1 [Olaparib]; settings: max 10 µM
Method in brief: as §1

[30] = compound: C1CC(C1)(C(=O)[O-])C(=O)[O-].N.N.[Pt+2] [Carboplatin]; settings: max 10 µM
Method in brief: as §1

[31] = compound: COc1cc(Nc2ncc3c(n2)-c2ccc(Cl)cc2C(c2c(F)cccc2OC)=NC3)ccc1C(=O)O [Alisertib]; settings: max 10 µM
Method in brief: as §1

[32] = compound: CC(=O)O[C@H]1C(=O)[C@@]2(C)[C@H]([C@H](OC(=O)c3ccccc3)[C@]3(O)C[C@H](OC(=O)[C@H](O)[C@@H](NC(=O)c4ccccc4)c4ccccc4)C(C)=C1C3(C)C)[C@]1(OC(C)=O)CO[C@@H]1C[C@@H]2O [Paclitaxel]; settings: max 3 µM
Method in brief: as §1

[33] = compound: CC1(C)CCC(CN2CCN(c3ccc(C(=O)NS(=O)(=O)c4ccc(NCC5CCOCC5)c([N+](=O)[O-])c4)c(Oc4cnc5[nH]ccc5c4)c3)CC2)=C(c2ccc(Cl)cc2)C1 [Venetoclax]; settings: max 1 µM
Method in brief: as §1

[34] = compound: Cn1cnc2c(F)c(Nc3ccc(Br)cc3Cl)c(C(=O)NOCCO)cc21 [Selumetinib]; settings: max 10 µM
Method in brief: as §1

[35] = compound: COc1cccc(OCCCN)c1-c1cc(Nc2cnc(C#N)cn2)n[nH]1 [Prexasertib]; settings: max 1 µM
Method in brief: as §1

Cell Line | IC50, cell viability 72 h [1] [nM] | IC50, cell viability 72 h [2] [nM] | IC50, cell viability 72 h [3] [nM] | IC50, cell viability 72 h [4] [nM] | IC50, cell viability 72 h [5] [nM] | IC50, cell viability 72 h [6] [nM] | IC50, cell viability 72 h [7] [nM] | IC50, cell viability 72 h [8] [nM] | IC50, cell viability 72 h [9] [nM] | IC50, cell viability 72 h [10] [nM] | IC50, cell viability 72 h [11] [nM] | IC50, cell viability 72 h [12] [nM] | IC50, cell viability 72 h [13] [nM] | IC50, cell viability 72 h [14] [nM] | IC50, cell viability 72 h [15] [nM] | IC50, cell viability 72 h [16] [nM] | IC50, cell viability 72 h [17] [nM] | IC50, cell viability 72 h [18] [nM] | IC50, cell viability 72 h [19] [nM] | IC50, cell viability 72 h [20] [nM] | IC50, cell viability 72 h [21] [nM] | IC50, cell viability 72 h [22] [nM] | IC50, cell viability 72 h [23] [nM] | IC50, cell viability 72 h [24] [nM] | IC50, cell viability 72 h [25] [nM] | IC50, cell viability 72 h [26] [nM] | IC50, cell viability 72 h [27] [nM] | IC50, cell viability 72 h [28] [nM] | IC50, cell viability 72 h [29] [nM] | IC50, cell viability 72 h [30] [nM] | IC50, cell viability 72 h [31] [nM] | IC50, cell viability 72 h [32] [nM] | IC50, cell viability 72 h [33] [nM] | IC50, cell viability 72 h [34] [nM] | IC50, cell viability 72 h [35] [nM]
KYSE-270 (Esophageal Squamous Cell Carcinoma) | 665 | > 1000 | > 10000 | 14900 | 35.9 | 4580 | > 10000 | 3470 | > 10000 | 10.7 | > 1 | 8190 | > 10000 | 506 | 424 | 1400 | > 1000 | > 10000 | > 10000 | > 1000 | > 1000 | 4160 | > 5000 | > 300 | > 1000 | 7840 | > 1000 | > 3000 | > 10000 | > 10000 | > 10000 | 39.4 | > 1000 | > 10000 | 8.06
M059J (Glioblastoma) | 933 | > 1000 | > 10000 | > 20000 | 90.9 | 2590 | > 10000 | > 10000 | > 10000 | 14.1 | > 1 | > 10000 | > 10000 | 1390 | 230 | > 10000 | > 1000 | > 10000 | > 10000 | > 1000 | 164 | > 10000 | > 5000 | > 300 | > 1000 | > 10000 | > 1000 | > 3000 | > 10000 | > 10000 | 4060 | 17.6 | > 1000 | > 10000 | 241
MN-60 (B-Lymphoblastic Leukemia) | > 3000 | > 1000 | > 10000 | > 20000 | 213 | > 10000 | > 10000 | > 10000 | > 10000 | 14.6 | > 1 | > 10000 | > 10000 | > 2000 | > 1000 | > 10000 | > 1000 | > 10000 | > 10000 | > 1000 | 111 | > 10000 | > 5000 | > 300 | > 1000 | > 10000 | > 1000 | > 3000 | > 10000 | > 10000 | > 10000 | 674 | > 1000 | > 10000 | > 1000
MOG-G-CCM (Low Grade Glioma) | > 3000 | > 1000 | > 10000 | > 20000 | > 300 | > 10000 | > 10000 | 8270 | > 10000 | 293 | > 1 | > 10000 | 4390 | 354 | > 1000 | > 10000 | > 1000 | > 10000 | > 10000 | > 1000 | 449 | > 10000 | > 5000 | > 300 | > 1000 | > 10000 | > 1000 | > 3000 | > 10000 | > 10000 | 1930 | 4.97 | > 1000 | > 10000 | 157
NCCIT (Other Solid Carcinomas) | 561 | > 1000 | > 10000 | > 20000 | > 300 | > 10000 | 8120 | 1620 | > 10000 | > 300 | > 1 | > 10000 | > 10000 | > 2000 | > 1000 | > 10000 | 891 | > 10000 | 6670 | > 1000 | 33.6 | 8410 | > 5000 | > 300 | > 1000 | > 10000 | > 1000 | > 3000 | > 10000 | > 10000 | > 10000 | 11.8 | > 1000 | > 10000 | 70.3
